What was measured:
CDK4/cyclin D3 = molecular target: T1, CDK4/cyclin D3 (Homo sapiens, UniProt P11802); assay: Human CDK4/cyclin D3 inhibitory activity (QS S Assist CDK4/Cyclin D3_FP Kit, IMAP fluorescence polarization); type: biochemical; details: 50% inhibitory concentration against CDK4/cyclin D3, given as class symbol
T1 construct: purchased Carna Biosciences, Inc. QS S Assist CDK4/Cyclin D3_FP Kit
Outline: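 Percent inhibition, relative to DMSO with and without enzyme, was curve-fitted to give IC50 from polarization (ex 485, em 535 nm). The 45-min room-temperature reaction used 12.5-25 ng/well enzyme, kit ATP/substrate/metal mix, and HEPES pH 7.4 buffer with Tween20 and DTT, followed by 30-min IMAP binding in the dark.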

CDK2/cyclin A2 = molecular target: T2, CDK2/cyclin A2 (Homo sapiens, UniProt P24941); assay: Human CDK2/cyclin A2 inhibitory activity (QS S Assist CDK2/Cyclin A2_FP Kit, IMAP fluorescence polarization); type: biochemical; details: 50% inhibitory concentration against CDK2/cyclin A2, given as class symbol
T2 construct: purchased Carna Biosciences, Inc. QS S Assist CDK2/Cyclin A2_FP Kit
Outline: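 Kinase activity read as fluorescence polarization (485/535 nm) after phosphorylated fluorescent substrate binds IMAP reagent (30 min, RT, dark). Enzyme (2.5 ng/well) reacted 60 min at RT with ATP/substrate/metal in HEPES pH 7.4 buffer with Tween 20 and DTT; no-enzyme wells define 0% activity; IC50 by curve fit.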

T1 sequence (P11802 whole entry): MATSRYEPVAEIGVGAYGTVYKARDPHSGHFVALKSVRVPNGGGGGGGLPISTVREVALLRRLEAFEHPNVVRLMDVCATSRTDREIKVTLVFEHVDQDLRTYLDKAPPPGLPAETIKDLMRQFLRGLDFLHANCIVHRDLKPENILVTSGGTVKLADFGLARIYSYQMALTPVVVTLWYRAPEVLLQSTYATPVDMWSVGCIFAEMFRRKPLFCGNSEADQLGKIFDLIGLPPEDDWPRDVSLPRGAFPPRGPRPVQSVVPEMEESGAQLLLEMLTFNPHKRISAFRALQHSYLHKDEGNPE
T1 sequence (P30281 whole entry partner): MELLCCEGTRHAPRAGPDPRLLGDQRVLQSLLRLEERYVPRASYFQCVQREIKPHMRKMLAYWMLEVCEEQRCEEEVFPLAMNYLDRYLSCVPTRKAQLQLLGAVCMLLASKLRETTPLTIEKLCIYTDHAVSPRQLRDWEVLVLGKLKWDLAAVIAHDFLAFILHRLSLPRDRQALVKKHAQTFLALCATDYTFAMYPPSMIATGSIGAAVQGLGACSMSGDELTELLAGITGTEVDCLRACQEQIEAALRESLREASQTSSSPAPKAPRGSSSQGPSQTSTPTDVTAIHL

IC50 (CDK4/cyclin D3) [nM]	IC50 (CDK2/cyclin A2) [nM]	Compound
10 to 100	≥ 100	CCCNc1nc([C@@H](C)O)cc2cnc(Nc3ccc4c(n3)CCN(CCO)C4)nc12 [Compound 1123]
10 to 100	≥ 100	CCNc1nc([C@@H](C)O)cc2cnc(Nc3ccc4c(n3)CCN(CCO)C4)nc12 [Compound 1124]
< 10	≥ 100	C[C@@H](O)c1cc2cnc(Nc3ccc4c(n3)CCN(CCO)C4)nc2c(N[C@H]2CCCOC2)n1 [Compound 1125]
< 10	≥ 100	C[C@@H](O)c1cc2cnc(Nc3ccc(CN4CCC(O)CC4)cn3)nc2c(N[C@H]2CCCOC2)n1 [Compound 1126]
< 10	≥ 100	C[C@@H](O)c1cc2cnc(Nc3ccc(CN4CCCC(O)C4)cn3)nc2c(NC(C)(C)C)n1 (stereo partly shown) [Compound 1127]
< 10	≥ 100	C[C@@H](O)c1cc2cnc(Nc3ccc(CN4CCCC(O)C4)cn3)nc2c(N[C@H]2CCCOC2)n1 (stereo partly shown) [Compound 1128]
< 10	≥ 100	CC1(c2cc3cnc(Nc4ccc5c(n4)CCN(CCO)C5)nc3c(N[C@H]3CCCOC3)n2)COC1 [Compound 1129]
10 to 100	≥ 100	CCCNc1nc([C@@H](C)OC)cc2cnc(Nc3ccc4c(n3)CCN(CCN(C)C)C4)nc12 [Compound 1130]
10 to 100	≥ 100	CCNc1nc([C@@H](C)OC)cc2cnc(Nc3ccc4c(n3)CCN(CCN(C)C)C4)nc12 [Compound 1131]
< 10	≥ 100	CO[C@H](C)c1cc2cnc(Nc3ccc4c(n3)CCN(CCN(C)C)C4)nc2c(N[C@H]2CCCOC2)n1 [Compound 1132]
< 10	≥ 100	CCCNc1nc([C@@H](C)OC)cc2cnc(Nc3ccc4c(n3)CCN(C(=O)OCCN(C)C)C4)nc12 [Compound 1133]
< 10	≥ 100	CCNc1nc([C@@H](C)OC)cc2cnc(Nc3ccc4c(n3)CCN(C(=O)OCCN(C)C)C4)nc12 [Compound 1134]
< 10	≥ 100	CO[C@H](C)c1cc2cnc(Nc3ccc4c(n3)CCN(C(=O)OCCN(C)C)C4)nc2c(N[C@H]2CCCOC2)n1 [Compound 1135]
< 10	≥ 100	CN(C)CCOC(=O)N1CCc2nc(Nc3ncc4cc(C5CCOC5)nc(N[C@H]5CCCOC5)c4n3)ccc2C1 (stereo partly shown) [Compound 1136]
< 10	≥ 100	CN(C)CCOC(=O)N1CCc2nc(Nc3ncc4cc(C5(C)COC5)nc(N[C@H]5CCCOC5)c4n3)ccc2C1 [Compound 1137]
< 10	≥ 100	CCCNc1nc([C@@H](C)O)cc2cnc(Nc3ccc4c(n3)CCN(CCN(C)C)C4)nc12 [Compound 1138]
< 10	≥ 100	CCNc1nc([C@@H](C)O)cc2cnc(Nc3ccc4c(n3)CCN(CCN(C)C)C4)nc12 [Compound 1139]
< 10	≥ 100	C[C@@H](O)c1cc2cnc(Nc3ccc4c(n3)CCN(CCN(C)C)C4)nc2c(N[C@H]2CCCOC2)n1 [Compound 1140]
< 10	≥ 100	CCCNc1nc([C@@H](C)O)cc2cnc(Nc3ccc4c(n3)CCN(C(=O)OCCN(C)C)C4)nc12 [Compound 1141]

IC50 (CDK4/cyclin D3) [nM]	IC50 (CDK2/cyclin A2) [nM]	Compound
< 10	≥ 100	CCNc1nc([C@@H](C)O)cc2cnc(Nc3ccc4c(n3)CCN(C(=O)OCCN(C)C)C4)nc12 [Compound 1142]
< 10	≥ 100	C[C@@H](O)c1cc2cnc(Nc3ccc4c(n3)CCN(C(=O)OCCN(C)C)C4)nc2c(N[C@H]2CCCOC2)n1 [Compound 1143]
< 10	≥ 100	CO[C@H](C)c1cc2cnc(Nc3ccc4c(n3)CCN(C(=O)CO)C4)nc2c(N[C@H]2CC[C@H](O)CC2)n1 [Compound 1144]
< 10	≥ 100	O=C(CO)N1CCc2nc(Nc3ncc4cc(C5CCOC5)nc(N[C@H]5CC[C@H](O)CC5)c4n3)ccc2C1 (stereo partly shown) [Compound 1145]
< 10	≥ 100	CC1(c2cc3cnc(Nc4ccc5c(n4)CCN(C(=O)CO)C5)nc3c(N[C@H]3CC[C@H](O)CC3)n2)COC1 [Compound 1146]
< 10	≥ 100	CCNc1nc([C@@H](C)O)cc2cnc(Nc3ccc(CN4CCC(CO)CC4)cn3)nc12 [Compound 1147]
< 10	≥ 100	CCCCNc1nc([C@@H](C)O)cc2cnc(Nc3ccc(CN4CCC(CO)CC4)cn3)nc12 [Compound 1148]
< 10	≥ 100	C[C@@H](O)c1cc2cnc(Nc3ccc(CN4CCC(CO)CC4)cn3)nc2c(NCC2CC2)n1 [Compound 1149]
< 10	≥ 100	C[C@@H](O)c1cc2cnc(Nc3ccc(CN4CCC(CO)CC4)cn3)nc2c(NC2CCC2)n1 [Compound 1150]
< 10	≥ 100	C[C@@H](O)c1cc2cnc(Nc3ccc(CN4CCC(CO)CC4)cn3)nc2c(N[C@H]2CC[C@H](O)CC2)n1 [Compound 1151]
< 10	≥ 100	C[C@@H](O)c1cc2cnc(Nc3ccc(CN4CCC(CO)CC4)cn3)nc2c(NCC2CCOCC2)n1 [Compound 1152]
< 10	≥ 100	CO[C@H](C)c1cc2cnc(Nc3ccc4c(n3)CCN(CCO)C4)nc2c(N[C@H]2CC[C@H](O)CC2)n1 [Compound 1153]
< 10	≥ 100	OCCN1CCc2nc(Nc3ncc4cc(C5CCOC5)nc(N[C@H]5CC[C@H](O)CC5)c4n3)ccc2C1 (stereo partly shown) [Compound 1154]
< 10	≥ 100	CC1(c2cc3cnc(Nc4ccc5c(n4)CCN(CCO)C5)nc3c(N[C@H]3CC[C@H](O)CC3)n2)COC1 [Compound 1155]
< 10	≥ 100	C[C@@H](O)c1cc2cnc(Nc3ccc(CN4CCC(CO)CC4)cn3)nc2c(N[C@H]2CCCOC2)n1 [Compound 1156]
10 to 100	≥ 100	CO[C@H](C)c1cc2cnc(Nc3ccc(CN4CCN(C(=O)C5CCCO5)CC4)cn3)nc2c(NC(C)C)n1 (stereo partly shown) [Compound 1157]
< 10	≥ 100	CO[C@H](C)c1cc2cnc(Nc3ccc(CN4CCN(C(=O)C5CCOC5)CC4)cn3)nc2c(NC(C)C)n1 (stereo partly shown) [Compound 1158]
< 10	≥ 100	CCCNc1nc([C@@H](C)O)cc2cnc(Nc3ccc(N4CCC(N(C)C)CC4)nn3)nc12 [Compound 1159]
< 10	10 to 100	CC(C)Nc1nc([C@@H](C)O)cc2cnc(Nc3ccc(C(=O)N4CCN(C)CC4)cn3)nc12 [Compound 1160]

IC50 (CDK4/cyclin D3) [nM]	IC50 (CDK2/cyclin A2) [nM]	Compound
< 10	10 to 100	CC(C)Nc1nc([C@@H](C)O)cc2cnc(Nc3ccc(C(=O)N4CCC(N(C)C)CC4)cn3)nc12 [Compound 1161]
< 10	10 to 100	CC(C)Nc1nc([C@@H](C)O)cc2cnc(Nc3ccc(C(=O)N4CC[C@H](N(C)C)C4)cn3)nc12 [Compound 1162]
< 10	10 to 100	CC(C)Nc1nc([C@@H](C)O)cc2cnc(Nc3ccc(C(=O)N4CC[C@@H](N(C)C)C4)cn3)nc12 [Compound 1163]
< 10	≥ 100	CC(C)Nc1nc([C@@H](C)O)cc2cnc(Nc3ccc(C(=O)NCCN(C)C)cn3)nc12 [Compound 1164]
< 10	10 to 100	CC(C)Nc1nc([C@@H](C)O)cc2cnc(Nc3ccc(C(=O)N4CCN(CCO)CC4)cn3)nc12 [Compound 1165]
< 10	≥ 100	CC(C)Nc1nc([C@@H](C)O)cc2cnc(Nc3ccc(C(=O)N4CCNC[C@@H]4C)cn3)nc12 [Compound 1166]
< 10	10 to 100	CC(C)Nc1nc([C@@H](C)O)cc2cnc(Nc3ccc(C(=O)N4CCNC[C@H]4C)cn3)nc12 [Compound 1167]
< 10	≥ 100	CCNc1nc([C@@H](C)O)c(C)c2cnc(Nc3ccc(CN4CCN(CCO)CC4)cn3)nc12 [Compound 1168]
< 10	≥ 100	CCNc1nc([C@@H](C)O)cc2cnc(Nc3ccc(CN4CCN(CCO)C(C)(C)C4)cn3)nc12 [Compound 1169]
< 10	≥ 100	C[C@@H](O)c1cc2cnc(Nc3ccc(CN4CCN(CCO)CC4)cn3)nc2c(NCC(F)(F)F)n1 [Compound 1170]
< 10	≥ 100	C[C@@H](O)c1cc2cnc(Nc3ccc(CN4CCN(CCO)CC4)cn3)nc2c(NC2CC(F)C2)n1 (stereo partly shown) [Compound 1171]
< 10	≥ 100	C[C@@H](O)c1cc2cnc(Nc3ccc(N4CCNCC4=O)cn3)nc2c(NC2(C)CC2)n1 [Compound 1173]
< 10	≥ 100	C[C@@H](O)c1cc2cnc(Nc3ccc(N4CCNCC4=O)cn3)nc2c(NCC(F)(F)F)n1 [Compound 1174]
< 10	≥ 100	C[C@@H](O)c1cc2cnc(Nc3ccc(N4CCNCC4)nn3)nc2c(NC2(C)CC2)n1 [Compound 1175]
< 10	≥ 100	CO[C@H](C)c1cc2cnc(Nc3ccc(N4CCN(C(=O)C5CCCO5)CC4)nn3)nc2c(NC(C)C)n1 (stereo partly shown) [Compound 1176]
< 10	≥ 100	CO[C@H](C)c1cc2cnc(Nc3ccc(N4CCN(C(=O)C5CCOC5)CC4)nn3)nc2c(NC(C)C)n1 (stereo partly shown) [Compound 1177]
< 10	≥ 100	CN(C)CCN1CCc2nc(Nc3ncc4cc(C5CCOC5)nc(N[C@H]5CCCOC5)c4n3)ccc2C1 (stereo partly shown) [Compound 1178]
< 10	≥ 100	CN(C)CCN1CCc2nc(Nc3ncc4cc(C5(C)COC5)nc(N[C@H]5CCCOC5)c4n3)ccc2C1 [Compound 1179]

From patent US10124004B2, “Pyrido[3,4-d]pyrimidine derivative and pharmaceutically acceptable salt thereof” (Teijin Pharma Limited, priority 2015, dated 2018)
